Marks after values point to notes of the source that are not given here.
Columns and labels:
[1] = system: patients with FL or CLL/SLL; test: Phase 1b study: adverse events of special interest (AESI) on IS or CS; type: in vivo, human
From the text: In some instances, severe cases of enterocolitis, rash, and transaminitis have been reported in a Phase 1b clinical study of Compound A35 in patients with B-cell malignancies. In some instances, the onset of severe immune-related toxicities were reported after a period of CS dosing greater than 2 cycles. A lymphocytic infiltrate was reported in biopsies obtained from 1 patient with colitis and 1 patient with severe skin rash enrolled in the study. Furthermore, corticosteroid therapy has been reported as effective treatment approach in patients who developed diarrhea and rash in the study.
Following reports of delayed onset of cases of enterocolitis and rash in patients with Compound A35 initially administered once a day on a continuous dosing schedule (CS) in a 28-day cycle, an alternate dosing regimen using an intermittent dosing schedule (IS) was evaluated. The hypothesis was that an IS of PI3K5 inhibitors including Compound A35 could reduce the incidence or lower the severity of immune mediated adverse events (irAEs) by allowing recovery of TREGs during treatment-free intervals. Furthermore, it was hypothesized that the IS, by delivering a lower dose-intensity treatment approach, could be used to re-treat patients who have experienced delayed irAEs on the CS or IS and had recovered following treatment interruption and a short course of corticosteroids.
An intermittent dosing schedule on days 1-7 of a 28-day cycle was then evaluated after 2 cycles of daily dosing, or ≥3 cycles of daily dosing to reduce the risk of immune-related adverse events. For this analysis the intermittent schedule (IS) group is defined as patients who received Compound A35 alone or with rituximab daily for 2 cycles then switched to an intermittent schedule of 1 week per cycle, and the continuous schedule (CS) group is defined as patients who never switched to intermittent dosing or switched to intermittent dosing in cycle 4 or later cycles. Toxicity on CS is managed by a switch to IS.
The IS was developed to mitigate the risk of delayed toxicities observed with PI3K inhibitors and believed to be associated with on-target effect PI3K inhibition on immune cells.

murine B-cell tumors = test: Tumor exposure and retention (FIGS. 3 and 4); type: in vivo
[2] = Plasma levels >IC90 and plasma versus tissue levels on intermittent dosing (FIGS. 6A-6B); type: in vivo, human; conditions: FIG. 6A
From the text: There is also evidence pointing to a role for the PI3K pathway in T lymphocytes, which may explain these immune dysregulations. For example, in mice, genetic inactivation of p110δ results in a decrease of the function of regulatory T-cells (TREGs), a subset population of T-cells. […] In some instances, PI3K5 inhibition results in various immune-mediated toxicities such as enterocolitis and skin toxicity due to TREG suppression, as well as infections due to suppression of B-cells and effector T-cells. In some instances, treatment regimens with small molecule PI3K5 delta (or PI3K5) inhibitors on an intermittent dosing schedule (IS) are used. However, in certain instances, progression of disease is observed in subjects who are treated for B-cell malignancies, including chronic lymphocytic leukemia (CLL) and lymphomas with small molecule PI3K5 inhibitors (e.g., parsaclisib (INCB050465)) on an IS dosing regimen (see FIG. 6B). […] In some embodiments, the methods of treatment and dosing regimens and schedules described herein provide an efficacious and tolerable treatment of cancer. In some embodiments, the methods of treatment and dosing regimens and schedules described herein improve the frequency, severity and time to onset of the adverse events (AEs) associated with PI3K delta inhibitors. […]

## CN1CCC(c2ccccc2CC(C)(C)Nc2nc(N3CCOCC3)nc(-n3c(C(F)F)nc4ccccc43)n2)CC1 [Compound A35]
[1]; CLL/SLL, All (N = 17)
  AESI ALT/AST increased, All Grades, patients (%): 2 (11.8%)
  AESI ALT/AST increased, Related Grade 3, patients (%): 0%
  AESI Diarrhea/colitis, All Grades, patients (%): 9 (52.9%)
  AESI Diarrhea/colitis, Related Grade 3, patients (%): 4 (23.5%)
  AESI Mucositis, All Grades, patients (%): 1 (5.9%)
  AESI Mucositis, Related Grade 3, patients (%): 0%
  AESI Pneumonia/Pneumonitis, All Grades, patients (%): 3 (17.6%)
  AESI Pneumonia/Pneumonitis, Related Grade 3, patients (%): 3 (17.6%)
  AESI Rash, all types, All Grades, patients (%): 6 (35.3%)
  AESI Rash, all types, Related Grade 3, patients (%): 0%
[1]; CLL/SLL, CS Group (N = 9)
  AESI ALT/AST increased, All Grades, patients (%): 2 (22.2%)
  AESI ALT/AST increased, Related Grade 3, patients (%): 0%
  AESI Diarrhea/colitis, All Grades, patients (%): 6 (66.7%)
  AESI Diarrhea/colitis, Related Grade 3, patients (%): 3 (33.3%)
  AESI Mucositis, All Grades, patients (%): 1 (11.1%)
  AESI Mucositis, Related Grade 3, patients (%): 0%
  AESI Pneumonia/Pneumonitis, All Grades, patients (%): 3 (33.3%)
  AESI Pneumonia/Pneumonitis, Related Grade 3, patients (%): 3 (33.3%)
  AESI Rash, all types, All Grades, patients (%): 4 (44.0%)
  AESI Rash, all types, Related Grade 3, patients (%): 0%
[1]; CLL/SLL, IS Group (N = 8)
  AESI ALT/AST increased, All Grades, patients (%): 0%
  AESI ALT/AST increased, Related Grade 3, patients (%): 0%
  AESI Diarrhea/colitis, All Grades, patients (%): 3 (37.5%)
  AESI Diarrhea/colitis, Related Grade 3, patients (%): 1 (12.5%)
  AESI Mucositis, All Grades, patients (%): 0%
  AESI Mucositis, Related Grade 3, patients (%): 0%
  AESI Pneumonia/Pneumonitis, All Grades, patients (%): 0%
  AESI Pneumonia/Pneumonitis, Related Grade 3, patients (%): 0%
  AESI Rash, all types, All Grades, patients (%): 2 (25.0%)
  AESI Rash, all types, Related Grade 3, patients (%): 0%
[1]; FL, All (N = 40)
  AESI ALT/AST increased, All Grades, patients (%): 9 (22.5%)
  AESI ALT/AST increased, Related Grade 3, patients (%): 3 (7.5%)
  AESI Diarrhea/colitis, All Grades, patients (%): 17 (42.5%)
  AESI Diarrhea/colitis, Related Grade 3, patients (%): 6 (15.0%)
  AESI Mucositis, All Grades, patients (%): 6 (15.0%)
  AESI Mucositis, Related Grade 3, patients (%): 1 (2.5%)
  AESI Pneumonia/Pneumonitis, All Grades, patients (%): 2 (5.0%)
  AESI Pneumonia/Pneumonitis, Related Grade 3, patients (%): 2 (5.0%)
  AESI Rash, all types, All Grades, patients (%): 12 (30.0%)
  AESI Rash, all types, Related Grade 3, patients (%): 4 (10.0%)
[1]; FL, CS Group (N = 25)
  AESI ALT/AST increased, All Grades, patients (%): 6 (24.0%)
  AESI ALT/AST increased, Related Grade 3, patients (%): 3 (12.0%)
  AESI Diarrhea/colitis, All Grades, patients (%): 10 (40.0%)
  AESI Diarrhea/colitis, Related Grade 3, patients (%): 5 (20.0%)
  AESI Mucositis, All Grades, patients (%): 6 (24.0%)
  AESI Mucositis, Related Grade 3, patients (%): 1 (4.0%)
  AESI Pneumonia/Pneumonitis, All Grades, patients (%): 2 (8.0%)
  AESI Pneumonia/Pneumonitis, Related Grade 3, patients (%): 2 (8.0%)
  AESI Rash, all types, All Grades, patients (%): 11 (44.0%)
  AESI Rash, all types, Related Grade 3, patients (%): 4 (16.0%)
[1]; FL, IS Group (N = 15)
  AESI ALT/AST increased, All Grades, patients (%): 3 (20.0%)
  AESI ALT/AST increased, Related Grade 3, patients (%): 0%
  AESI Diarrhea/colitis, Related Grade 3, patients (%): 1 (6.7%)
  AESI Mucositis, All Grades, patients (%): 0%
  AESI Mucositis, Related Grade 3, patients (%): 0%
  AESI Pneumonia/Pneumonitis, All Grades, patients (%): 0%
  AESI Pneumonia/Pneumonitis, Related Grade 3, patients (%): 0%
  AESI Rash, all types, All Grades, patients (%): 1 (6.7%)
  AESI Rash, all types, Related Grade 3, patients (%): 0%
[1]; FL, IS Group (N = 15), excluded 1 subject with diarrhea after POD and 1 with diarrhea lasting one day with no dose change
  AESI Diarrhea/colitis, All Grades, patients (%): 7 (46.7%)*
[1]; IS versus CS
  immune-mediated toxicities with IS administration: reduces the incidence of or delayed onset of immune-mediated toxicities
[1]; Phase 1b study, patients with B-cell malignancies, CS dosing
  period of CS dosing before onset of severe immune-related toxicities: greater than 2 cycles
Murine B-cell tumors; FIG. 4
  retention in murine B-cell tumors compared to idelalisib: preferential retention
Murine B-cell tumors; over a 4-hour and 24-hour period (FIG. 3)
  tumor exposure: preferential tumor exposure
[2]
  plasma levels versus tissue levels: plasma levels underestimate tissue levels
